Data from BindingDB's records for patent US9796704 (SYMPHONY EVOLUTION, INC., 2017).

Legend:
Experiment in all cases: AlphaScreen Assay
Ephrin type-B receptor 4 = target: T1, Ephrin type-B receptor 4 (Homo sapiens, UniProt P54760)
T1 sequence (P54760 whole entry): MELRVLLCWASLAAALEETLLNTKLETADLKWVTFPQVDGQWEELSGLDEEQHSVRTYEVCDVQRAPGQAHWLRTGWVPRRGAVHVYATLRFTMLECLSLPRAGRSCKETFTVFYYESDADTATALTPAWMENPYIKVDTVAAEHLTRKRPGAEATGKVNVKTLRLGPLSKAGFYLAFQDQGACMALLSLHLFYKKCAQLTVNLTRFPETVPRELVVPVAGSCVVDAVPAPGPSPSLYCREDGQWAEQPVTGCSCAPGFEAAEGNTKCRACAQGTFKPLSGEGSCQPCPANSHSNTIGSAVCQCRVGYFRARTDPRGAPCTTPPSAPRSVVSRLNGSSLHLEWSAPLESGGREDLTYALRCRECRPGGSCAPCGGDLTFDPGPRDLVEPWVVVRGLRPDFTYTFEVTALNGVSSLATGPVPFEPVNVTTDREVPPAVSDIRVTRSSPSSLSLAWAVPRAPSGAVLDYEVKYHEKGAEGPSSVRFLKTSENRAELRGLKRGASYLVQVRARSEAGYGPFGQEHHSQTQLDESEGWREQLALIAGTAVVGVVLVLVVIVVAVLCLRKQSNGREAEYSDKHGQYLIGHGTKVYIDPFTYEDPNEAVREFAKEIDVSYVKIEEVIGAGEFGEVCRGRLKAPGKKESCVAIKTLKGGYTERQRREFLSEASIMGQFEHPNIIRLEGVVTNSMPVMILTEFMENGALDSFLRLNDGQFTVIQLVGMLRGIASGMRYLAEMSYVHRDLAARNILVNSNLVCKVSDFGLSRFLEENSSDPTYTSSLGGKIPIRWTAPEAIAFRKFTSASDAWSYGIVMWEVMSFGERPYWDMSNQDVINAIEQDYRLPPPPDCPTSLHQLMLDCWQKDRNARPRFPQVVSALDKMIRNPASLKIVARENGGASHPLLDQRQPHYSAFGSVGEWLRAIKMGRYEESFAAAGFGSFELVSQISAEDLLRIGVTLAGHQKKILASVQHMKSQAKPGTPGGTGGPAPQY
Protocol: (§1) In AlphaScreen, when the donor and acceptor beads are close in proximity, a series of photochemical events will give rise to a fluorescent signal upon light activation. Here we use biotinylated poly-(Glu, Tyr) 4:1 as the kinase substrate, streptavidin-coated donor beads and anti-phosphortyrosine antibody PY100-coated acceptor beads. […] Compounds, ATP, biotinylated poly-(Glu, Tyr) and kinases are mixed in a volume of 20 μL for 1 hr at ambient temperature using Greiner 384-well white clear bottom medium binding plates. Then 10 uL solution containing 15-30 mg/mL AlphaScreen beads, 75 mM Hepes, pH 7.4, 300 mM NaCl, 120 mM EDTA, 0.3% BSA and 0.03% Tween-20 is added to each well. After 2-16 hr incubation of the beads, plates are read in a Perkin Elmer AlphaQuest reader (available from PerkinElmer Life and Analytical Sciences, Inc., of Boston Mass.).

[1] = target: Receptor tyrosine-protein kinase erbB-2 (Homo sapiens, UniProt P04626)
Protocol: as §1

Ephrin type-A receptor 2 = Ephrin type-A receptor 2 (Homo sapiens, UniProt P29317)
Protocol: as §1

[2] = target: Vascular endothelial growth factor receptor 2 (Homo sapiens, UniProt P35968)
Chain of Vascular endothelial growth factor receptor 2 (P35968 whole entry): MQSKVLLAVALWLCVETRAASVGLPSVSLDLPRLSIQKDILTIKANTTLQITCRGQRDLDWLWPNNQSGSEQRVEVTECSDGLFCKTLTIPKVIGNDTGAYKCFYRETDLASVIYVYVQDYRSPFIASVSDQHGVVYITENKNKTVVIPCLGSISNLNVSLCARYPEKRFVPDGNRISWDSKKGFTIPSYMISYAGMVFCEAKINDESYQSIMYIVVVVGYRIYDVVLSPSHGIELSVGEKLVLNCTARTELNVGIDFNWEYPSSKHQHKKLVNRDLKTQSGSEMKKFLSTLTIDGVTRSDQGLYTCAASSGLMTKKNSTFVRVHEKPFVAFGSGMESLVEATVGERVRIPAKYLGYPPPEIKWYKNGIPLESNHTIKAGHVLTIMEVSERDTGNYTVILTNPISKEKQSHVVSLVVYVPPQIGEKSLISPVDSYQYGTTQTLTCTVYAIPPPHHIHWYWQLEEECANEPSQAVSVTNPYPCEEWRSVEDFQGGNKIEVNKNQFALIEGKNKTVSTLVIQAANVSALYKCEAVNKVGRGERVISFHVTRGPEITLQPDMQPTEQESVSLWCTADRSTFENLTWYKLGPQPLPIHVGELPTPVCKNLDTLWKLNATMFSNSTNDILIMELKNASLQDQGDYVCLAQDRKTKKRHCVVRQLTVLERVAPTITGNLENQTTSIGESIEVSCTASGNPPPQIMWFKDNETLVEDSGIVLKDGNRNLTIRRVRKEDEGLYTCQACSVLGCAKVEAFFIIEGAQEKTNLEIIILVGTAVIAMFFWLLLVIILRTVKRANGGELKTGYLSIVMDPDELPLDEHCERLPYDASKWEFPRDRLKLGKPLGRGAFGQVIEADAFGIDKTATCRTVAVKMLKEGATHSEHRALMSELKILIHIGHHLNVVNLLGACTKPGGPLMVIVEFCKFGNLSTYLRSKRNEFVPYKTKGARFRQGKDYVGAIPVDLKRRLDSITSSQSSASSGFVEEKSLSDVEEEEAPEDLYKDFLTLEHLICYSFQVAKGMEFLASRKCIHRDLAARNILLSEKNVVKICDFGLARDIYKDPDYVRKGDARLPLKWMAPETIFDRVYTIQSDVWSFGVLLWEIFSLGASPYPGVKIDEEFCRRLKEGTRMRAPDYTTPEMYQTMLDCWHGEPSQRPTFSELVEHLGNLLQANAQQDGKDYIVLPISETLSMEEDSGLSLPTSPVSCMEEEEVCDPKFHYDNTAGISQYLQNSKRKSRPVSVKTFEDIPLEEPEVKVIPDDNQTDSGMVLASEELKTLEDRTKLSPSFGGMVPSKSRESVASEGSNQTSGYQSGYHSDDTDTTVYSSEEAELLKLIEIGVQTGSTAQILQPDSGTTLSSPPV
Protocol: as §1

Chain of Ephrin type-A receptor 2 (P29317 whole entry): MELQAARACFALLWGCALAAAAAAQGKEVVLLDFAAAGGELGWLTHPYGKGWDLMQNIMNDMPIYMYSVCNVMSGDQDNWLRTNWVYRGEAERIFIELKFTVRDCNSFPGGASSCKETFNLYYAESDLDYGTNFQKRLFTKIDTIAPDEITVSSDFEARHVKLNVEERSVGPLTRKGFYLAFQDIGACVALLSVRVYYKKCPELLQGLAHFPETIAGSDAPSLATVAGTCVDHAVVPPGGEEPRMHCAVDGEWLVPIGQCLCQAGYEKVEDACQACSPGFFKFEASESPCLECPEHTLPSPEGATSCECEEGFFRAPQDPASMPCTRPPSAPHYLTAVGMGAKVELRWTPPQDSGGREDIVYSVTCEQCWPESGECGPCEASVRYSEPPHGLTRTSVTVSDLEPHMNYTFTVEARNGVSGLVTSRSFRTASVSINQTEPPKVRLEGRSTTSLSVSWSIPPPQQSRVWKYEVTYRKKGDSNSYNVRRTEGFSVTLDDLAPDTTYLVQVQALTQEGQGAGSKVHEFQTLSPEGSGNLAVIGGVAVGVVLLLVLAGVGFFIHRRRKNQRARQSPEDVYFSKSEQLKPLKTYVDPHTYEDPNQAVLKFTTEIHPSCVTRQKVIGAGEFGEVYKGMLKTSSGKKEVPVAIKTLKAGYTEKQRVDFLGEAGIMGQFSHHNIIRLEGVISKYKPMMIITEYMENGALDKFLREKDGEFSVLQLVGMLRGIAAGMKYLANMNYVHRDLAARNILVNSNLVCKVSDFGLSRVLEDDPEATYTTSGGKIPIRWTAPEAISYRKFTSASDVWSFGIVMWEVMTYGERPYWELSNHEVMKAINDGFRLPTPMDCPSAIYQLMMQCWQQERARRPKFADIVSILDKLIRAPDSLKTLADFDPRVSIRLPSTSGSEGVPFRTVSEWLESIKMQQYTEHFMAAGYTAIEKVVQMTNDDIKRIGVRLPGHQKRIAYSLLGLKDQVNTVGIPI
Chain of Receptor tyrosine-protein kinase erbB-2 (P04626 whole entry): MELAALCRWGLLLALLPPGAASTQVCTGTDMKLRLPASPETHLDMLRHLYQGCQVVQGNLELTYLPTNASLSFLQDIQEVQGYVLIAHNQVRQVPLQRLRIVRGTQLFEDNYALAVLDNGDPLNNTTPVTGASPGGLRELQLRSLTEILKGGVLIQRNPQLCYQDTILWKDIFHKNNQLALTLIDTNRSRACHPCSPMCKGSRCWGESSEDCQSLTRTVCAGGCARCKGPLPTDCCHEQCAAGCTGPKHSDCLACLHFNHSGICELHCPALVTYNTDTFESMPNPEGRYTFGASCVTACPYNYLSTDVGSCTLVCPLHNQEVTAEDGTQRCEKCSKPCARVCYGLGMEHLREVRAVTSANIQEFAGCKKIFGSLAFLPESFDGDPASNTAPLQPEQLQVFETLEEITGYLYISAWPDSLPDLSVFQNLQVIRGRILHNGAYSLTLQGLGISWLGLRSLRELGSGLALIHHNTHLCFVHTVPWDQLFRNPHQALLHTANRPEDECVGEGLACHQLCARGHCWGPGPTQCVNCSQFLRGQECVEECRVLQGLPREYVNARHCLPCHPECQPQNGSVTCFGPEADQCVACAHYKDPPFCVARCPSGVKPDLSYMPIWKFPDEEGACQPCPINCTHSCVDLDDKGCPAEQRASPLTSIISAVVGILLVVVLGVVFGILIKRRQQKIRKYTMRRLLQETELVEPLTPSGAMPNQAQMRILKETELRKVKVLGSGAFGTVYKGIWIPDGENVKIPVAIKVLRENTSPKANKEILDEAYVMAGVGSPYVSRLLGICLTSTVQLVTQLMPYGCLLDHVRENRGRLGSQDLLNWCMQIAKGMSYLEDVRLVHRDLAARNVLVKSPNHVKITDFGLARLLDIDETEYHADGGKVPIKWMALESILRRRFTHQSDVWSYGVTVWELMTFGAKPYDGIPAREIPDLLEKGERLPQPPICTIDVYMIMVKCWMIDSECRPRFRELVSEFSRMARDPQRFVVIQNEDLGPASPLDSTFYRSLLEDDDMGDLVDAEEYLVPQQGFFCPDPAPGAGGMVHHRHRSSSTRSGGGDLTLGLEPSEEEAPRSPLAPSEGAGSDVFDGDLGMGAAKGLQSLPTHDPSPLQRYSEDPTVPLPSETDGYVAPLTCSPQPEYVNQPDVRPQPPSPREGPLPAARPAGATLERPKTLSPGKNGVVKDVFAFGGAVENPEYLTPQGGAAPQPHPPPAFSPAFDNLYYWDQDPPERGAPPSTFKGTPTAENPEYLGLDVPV

IC50 (Ephrin type-B receptor 4) | IC50 [1] | IC50 (Ephrin type-A receptor 2) | IC50 [2] | SMILES
in the range around 525 nM | – | in the range around 525 nM | in the range around 525 nM | COc1cc2c(Nc3ccc(Cl)c(Cl)c3)ncnc2cc1OCc1cccc2nsnc12 [US9796704, Entry 159]
in the range around 525 nM | – | in the range around 525 nM | in the range around 525 nM | COc1cc2c(Nc3ccc(Cl)c(Cl)c3)ncnc2cc1OCc1nc2ccccc2s1 [US9796704, Entry 162]
in the range around 525 nM | – | in the range around 525 nM | in the range around 10500 nM | COc1cc2c(Nc3ccc(Cl)c(Cl)c3)ncnc2cc1OCc1cnn(-c2ccccc2)c1 [US9796704, Entry 165]
in the range around 525 nM | – | in the range around 525 nM | in the range around 525 nM | COc1cc2c(Nc3ccc(Cl)c(Cl)c3)ncnc2cc1OCc1nc(-c2ccc(Cl)cc2)no1 [US9796704, Entry 168]
in the range around 525 nM | – | in the range around 10500 nM | in the range around 525 nM | COc1cc2c(Nc3ccc(Cl)c(Cl)c3)ncnc2cc1OCc1c(OC)ccc2cc(Br)ccc12 [US9796704, Entry 169]
in the range around 525 nM | – | in the range around 10500 nM | in the range around 525 nM | COc1cc2c(Nc3ccc(Cl)c(Cl)c3)ncnc2cc1OCc1ccc(Cl)nc1 [US9796704, Entry 171]
in the range around 525 nM | – | in the range around 525 nM | in the range around 525 nM | COc1cc2c(Nc3ccc(Cl)c(Cl)c3)ncnc2cc1OCc1csc(C)n1 [US9796704, Entry 173]
in the range around 10500 nM | – | in the range around 10500 nM | in the range around 525 nM | COc1cc2c(Nc3ccc(Cl)c(Cl)c3)ncnc2cc1OCc1cc(Cl)cc2c1OCOC2 [US9796704, Entry 174]
in the range around 525 nM | – | in the range around 525 nM | in the range around 525 nM | COc1cc2c(Nc3ccc(Cl)c(Cl)c3)ncnc2cc1OCc1cc(-c2ccccc2)no1 [US9796704, Entry 177]
in the range around 10500 nM | – | in the range around 10500 nM | in the range around 10500 nM | COc1cc2c(Nc3ccc(Cl)c(Cl)c3)ncnc2cc1OCc1c(C)cc(C)cc1C [US9796704, Entry 178]
in the range around 525 nM | – | in the range around 525 nM | in the range around 525 nM | COc1ccc(-c2cc(COc3cc4ncnc(Nc5ccc(Cl)c(Cl)c5)c4cc3OC)on2)cc1 [US9796704, Entry 180]
in the range around 525 nM | – | in the range around 525 nM | in the range around 525 nM | COc1cc2c(Nc3ccc(Cl)c(Cl)c3)ncnc2cc1OCc1c(C(F)(F)F)nn(C)c1Oc1ccc(Cl)cc1Cl [US9796704, Entry 181]
in the range around 525 nM | – | in the range around 525 nM | in the range around 525 nM | COc1cc2c(Nc3ccc(Cl)c(Cl)c3)ncnc2cc1OCc1noc(COCc2ccccc2)n1 [US9796704, Entry 211]

The next lines start with the molecule.

SMILES | IC50 (Ephrin type-B receptor 4) | IC50 [1] | IC50 (Ephrin type-A receptor 2) | IC50 [2]
COc1cc2c(Nc3ccc(Br)c(Cl)c3F)ncnc2cc1OC[C@@H]1CN2CCC[C@H]2CO1 [US9796704, Entry 37] | in the range around 525 nM | < 50 nM | – | –
COc1cc2c(Nc3ccccc3Cl)ncnc2cc1O[C@@H]1CO[C@@H]2[C@H]1OC[C@H]2F [US9796704, Entry 112] | in the range around 525 nM | – | in the range around 525 nM | in the range around 525 nM
COc1cc2c(Nc3ccccc3F)ncnc2cc1O[C@@H]1CO[C@@H]2[C@H]1OC[C@H]2F [US9796704, Entry 113] | in the range around 525 nM | – | in the range around 525 nM | in the range around 525 nM
COc1cc2c(Nc3ccc(Cl)cc3)ncnc2cc1O[C@@H]1CO[C@@H]2[C@H]1OC[C@H]2F [US9796704, Entry 116] | in the range around 525 nM | – | in the range around 525 nM | in the range around 525 nM
COc1cc2c(Nc3ccc(Cl)c(C(F)(F)F)c3)ncnc2cc1O[C@@H]1CO[C@@H]2[C@H]1OC[C@H]2F [US9796704, Entry 121] | in the range around 525 nM | – | in the range around 525 nM | in the range around 525 nM
COc1cc2c(Nc3cccc(C(F)(F)F)c3F)ncnc2cc1O[C@@H]1CO[C@@H]2[C@H]1OC[C@H]2F [US9796704, Entry 123] | in the range around 525 nM | – | in the range around 525 nM | in the range around 525 nM
COc1cc2c(Nc3cc(C(F)(F)F)ccc3Br)ncnc2cc1O[C@@H]1CO[C@@H]2[C@H]1OC[C@H]2F [US9796704, Entry 124] | in the range around 525 nM | – | in the range around 525 nM | in the range around 525 nM
COc1cc2c(Nc3ccc(F)cc3C(F)(F)F)ncnc2cc1O[C@@H]1CO[C@@H]2[C@H]1OC[C@H]2F [US9796704, Entry 126] | in the range around 525 nM | – | in the range around 525 nM | in the range around 10500 nM
COc1cc2c(Nc3ccccc3Br)ncnc2cc1O[C@@H]1CO[C@@H]2[C@H]1OC[C@H]2F [US9796704, Entry 128] | in the range around 525 nM | – | in the range around 525 nM | in the range around 525 nM
COc1cc2c(Nc3ccc(Br)cc3)ncnc2cc1O[C@@H]1CO[C@@H]2[C@H]1OC[C@H]2F [US9796704, Entry 130] | in the range around 525 nM | – | in the range around 525 nM | in the range around 525 nM
COc1cc2c(Nc3ccc(C)c(Br)c3)ncnc2cc1O[C@@H]1CO[C@@H]2[C@H]1OC[C@H]2F [US9796704, Entry 131] | in the range around 525 nM | – | in the range around 525 nM | in the range around 525 nM
COc1cc2c(Nc3cc(C)cc(C)c3)ncnc2cc1O[C@@H]1CO[C@@H]2[C@H]1OC[C@H]2F [US9796704, Entry 133] | in the range around 525 nM | – | in the range around 525 nM | in the range around 525 nM
COc1cc(Nc2ncnc3cc(O[C@@H]4CO[C@@H]5[C@H]4OC[C@H]5F)c(OC)cc23)c(OC)cc1Cl [US9796704, Entry 136] | in the range around 525 nM | – | in the range around 525 nM | in the range around 525 nM
COc1cc2c(Nc3ccc(Cl)c(Cl)c3)ncnc2cc1OCC1=CC2C(C(F)(F)F)=NN(C)C2S1 (stereo not drawn) [US9796704, Entry 176] | in the range around 525 nM | – | in the range around 525 nM | in the range around 525 nM
COc1cc2c(Nc3ccc(Cl)c(Cl)c3)ncnc2cc1OC[C@@H]1O[C@@H](OC)[C@@H](O)[C@H](O)[C@H]1O [US9796704, Entry 194] | < 50 nM | – | in the range around 525 nM | in the range around 525 nM
